Results from publication PMC9031226, “Preclinical Therapeutic Assessment of a New Chemotherapeutics [Dichloro(4,4’-Bis(2,2,3,3-Tetrafluoropropoxy) Methyl)-2,2’-Bipryridine) Platinum] in an Orthotopic Patient-Derived Xenograft Model of Triple-Negative Breast Cancers” (Pharmaceutics, 2022).

Assay: HE staining of major organs (CDX model)
Format: in vivo, mice
Details: xenograft model
Excerpt: Formalin-fixed and paraffin-embedded 4 μm sections of tumor and organs from cell-bearing xenograft models were stained in hematoxylin and eosin to provide an overall morphology of tissues. Tumor sections were dewaxed with UltraClear™ (J.T.Baker, Phillipsburg, NJ, USA), rehydrated in a descending series of alcohol and water and had antigens unmasked in pH 6 or pH 9 Epitope Retrieval Solution (Leica Biosystems Inc., Wetzlar, Germany) in a microwave pressure cooker. […] VisUCyte HRP Polymer Antibody against rabbit IgG (VC003-025; R&D Systems, Minneapolis, MN, USA) and mouse IgG (VC001-025; R&D Systems, Minneapolis, MN, USA) were targeted to primary antibodies. Liquid DAB+ system from Agilent Technologies (Santa Clara, CA, USA) was applied as a chromogen for visualizing. Slides were mounted after hematoxylin counterstaining. All images were scanned using Motic EasyScan Pro 6 pathology slide scanner (Motic China Group Co., Ltd., Hong Kong, China).

FC(F)C(F)(F)COCc1ccnc(-c2cc(COCC(F)(F)C(F)F)ccn2)c1.[Cl][Pt][Cl] [TFBPC]
pathophysiological changes in heart, kidneys, liver, lungs and spleen (HE staining): No obvious pathophysiological changes
